The values that follow come from ChEMBL document CHEMBL4622845, “p62/SQSTM1, a Central but Unexploited Target: Advances in Its Physiological/Pathogenic Functions and Small Molecular Modulators” (J Med Chem, 2020).

Data set [1] can be described thus: Cytotoxicity against RSL3 resistance human HN3 cells assessed as reduction in cell viability. The format is functional, cell-based.
In data set [2] the target is T1, Phosphatidylinositol 3-kinase catalytic subunit type 3 (Homo sapiens, UniProt Q8NEB9). In words: Inhibition of Vps34 (unknown origin).
Data set [3] addresses T1, Phosphatidylinositol 3-kinase catalytic subunit type 3. In words: Inhibition of Vps34 (unknown origin) interaction with PIK3 assessed as reduction in autophagy by increasing LC3 level.
The target is the same in data set [4]. In words: Inhibition of Vps34 in human MCF7-LC3 cells. The format is cell-based.
Data set [5] can be described thus: Antitumor activity against human multiple myeloma cells. Format: functional.
In data set [6] the test system is NSCLC. In words: Anticancer activity against human NSCLC cells. The format is functional, cell-based.
For data set [7], the target named is Serine/threonine-protein kinase mTOR (Homo sapiens, UniProt P42345). In words: Inhibition of mTOR in HEK293 cells. Format: cell-based.
Data set [8] addresses T2, UDP-glucuronosyltransferase 1A1 (Homo sapiens, UniProt P22309).
T2 sequence (P22309 whole entry): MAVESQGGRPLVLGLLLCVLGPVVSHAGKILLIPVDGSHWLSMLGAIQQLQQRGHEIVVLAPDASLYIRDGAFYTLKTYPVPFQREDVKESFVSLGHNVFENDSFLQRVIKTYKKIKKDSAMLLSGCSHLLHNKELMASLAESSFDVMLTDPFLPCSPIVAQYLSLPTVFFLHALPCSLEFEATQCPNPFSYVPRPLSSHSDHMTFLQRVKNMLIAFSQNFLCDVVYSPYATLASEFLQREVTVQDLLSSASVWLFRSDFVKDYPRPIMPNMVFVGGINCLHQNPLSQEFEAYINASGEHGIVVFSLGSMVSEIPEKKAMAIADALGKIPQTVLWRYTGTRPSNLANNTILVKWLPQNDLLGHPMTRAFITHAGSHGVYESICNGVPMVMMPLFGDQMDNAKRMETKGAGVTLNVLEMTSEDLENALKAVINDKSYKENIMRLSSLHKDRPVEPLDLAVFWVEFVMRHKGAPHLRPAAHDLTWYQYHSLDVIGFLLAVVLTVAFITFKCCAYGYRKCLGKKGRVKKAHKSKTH
In words: Induction of UGT1A1 (unknown origin) assessed as increase in intracellular acidic autophagy vesicles formation. Format: ADME, cell-based.

Data set [9] addresses CYP450 (Homo sapiens, UniProt P04798+P05177+P05181+P08684+P10632+P10635+P11509+P11712+P13584+P20813+P20815+P20853+P24462+P24903+P33260+P33261+P51589+P78329+P98187+Q02928+Q08477+Q16678+Q16696+Q5TCH4+Q6VVX0+Q7Z449+Q8TAV3+Q96SQ9+Q9HB55). In words: Inhibition of CYP450 (unknown origin). Format: ADME, protein assay.
The target in data set [10] is T3, DNA polymerase alpha catalytic subunit (Homo sapiens, UniProt P09884).
T3 sequence (P09884 whole entry): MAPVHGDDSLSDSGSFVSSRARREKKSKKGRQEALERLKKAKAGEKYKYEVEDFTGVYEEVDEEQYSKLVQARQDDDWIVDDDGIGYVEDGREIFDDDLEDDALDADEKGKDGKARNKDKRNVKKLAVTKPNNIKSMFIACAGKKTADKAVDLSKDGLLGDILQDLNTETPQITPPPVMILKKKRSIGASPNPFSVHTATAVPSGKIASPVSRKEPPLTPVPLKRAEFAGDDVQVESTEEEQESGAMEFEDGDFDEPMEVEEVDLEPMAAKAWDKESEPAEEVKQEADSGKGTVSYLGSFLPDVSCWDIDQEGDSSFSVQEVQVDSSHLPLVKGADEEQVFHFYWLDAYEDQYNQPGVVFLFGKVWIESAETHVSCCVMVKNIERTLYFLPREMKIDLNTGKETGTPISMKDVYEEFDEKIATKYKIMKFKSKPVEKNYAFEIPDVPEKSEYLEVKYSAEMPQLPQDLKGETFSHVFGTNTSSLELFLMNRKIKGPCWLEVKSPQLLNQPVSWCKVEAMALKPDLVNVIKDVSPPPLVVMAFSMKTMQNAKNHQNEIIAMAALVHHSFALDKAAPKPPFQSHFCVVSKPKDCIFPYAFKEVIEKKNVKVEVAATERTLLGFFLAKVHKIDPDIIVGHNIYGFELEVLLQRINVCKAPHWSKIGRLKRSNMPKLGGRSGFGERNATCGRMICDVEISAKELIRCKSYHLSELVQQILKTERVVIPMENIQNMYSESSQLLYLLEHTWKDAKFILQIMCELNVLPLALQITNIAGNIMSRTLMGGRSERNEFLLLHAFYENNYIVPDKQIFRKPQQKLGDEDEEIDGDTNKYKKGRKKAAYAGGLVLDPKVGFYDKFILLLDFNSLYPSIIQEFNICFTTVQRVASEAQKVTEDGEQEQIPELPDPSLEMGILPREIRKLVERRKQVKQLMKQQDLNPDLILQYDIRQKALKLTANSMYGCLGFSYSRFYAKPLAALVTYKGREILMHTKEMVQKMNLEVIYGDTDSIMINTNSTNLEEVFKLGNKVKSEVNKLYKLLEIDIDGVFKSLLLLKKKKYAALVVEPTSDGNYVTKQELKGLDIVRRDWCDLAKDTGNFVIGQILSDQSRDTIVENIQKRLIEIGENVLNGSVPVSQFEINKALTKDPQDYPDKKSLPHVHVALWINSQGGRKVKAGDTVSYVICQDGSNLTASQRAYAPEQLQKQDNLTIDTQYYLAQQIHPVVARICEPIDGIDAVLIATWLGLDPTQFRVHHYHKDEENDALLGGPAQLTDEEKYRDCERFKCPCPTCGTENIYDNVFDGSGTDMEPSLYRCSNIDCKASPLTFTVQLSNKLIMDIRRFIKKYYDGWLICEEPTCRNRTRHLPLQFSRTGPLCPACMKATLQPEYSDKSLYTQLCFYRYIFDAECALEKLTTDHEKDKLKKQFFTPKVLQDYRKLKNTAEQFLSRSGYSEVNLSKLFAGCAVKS
In words: Inhibition of human DNA polymerase-alpha (unknown origin).

Structures can show the parent of a compound that is named as a salt.

T1 sequence (Q8NEB9 whole entry): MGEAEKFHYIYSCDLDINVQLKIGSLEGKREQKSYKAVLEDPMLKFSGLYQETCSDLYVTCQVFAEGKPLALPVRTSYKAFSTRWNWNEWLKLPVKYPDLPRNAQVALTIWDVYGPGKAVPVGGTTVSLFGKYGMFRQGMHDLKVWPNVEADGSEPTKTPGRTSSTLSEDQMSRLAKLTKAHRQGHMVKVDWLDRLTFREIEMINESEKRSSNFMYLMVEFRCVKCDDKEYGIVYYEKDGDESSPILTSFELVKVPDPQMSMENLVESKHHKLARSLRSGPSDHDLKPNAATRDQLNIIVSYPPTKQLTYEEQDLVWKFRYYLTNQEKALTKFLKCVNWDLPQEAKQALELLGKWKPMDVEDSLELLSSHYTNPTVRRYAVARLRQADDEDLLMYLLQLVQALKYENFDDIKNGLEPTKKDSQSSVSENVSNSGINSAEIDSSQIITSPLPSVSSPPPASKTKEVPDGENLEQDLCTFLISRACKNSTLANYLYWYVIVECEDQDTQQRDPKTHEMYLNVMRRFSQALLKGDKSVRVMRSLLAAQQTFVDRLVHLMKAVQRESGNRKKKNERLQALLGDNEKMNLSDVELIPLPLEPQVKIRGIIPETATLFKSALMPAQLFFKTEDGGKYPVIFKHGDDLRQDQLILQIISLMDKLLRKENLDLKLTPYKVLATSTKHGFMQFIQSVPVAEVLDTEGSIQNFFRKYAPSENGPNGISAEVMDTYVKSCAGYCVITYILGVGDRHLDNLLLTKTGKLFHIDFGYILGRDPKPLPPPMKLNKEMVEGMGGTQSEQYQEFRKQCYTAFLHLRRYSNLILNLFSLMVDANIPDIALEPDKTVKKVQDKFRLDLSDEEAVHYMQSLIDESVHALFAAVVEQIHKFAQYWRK

As for `COc1ccc(N(C(=O)CCl)C(C(=O)NCCc2ccccc2)c2cccs2)cc1Cl` (stereo not given), the IC50 in data set [1] stood at 5800 nM; in data set [2], 25 nM; in data set [3] it was 18 nM.

In [4], `Cc1cc(Nc2cc(Cl)nc(Oc3ccc([N+](=O)[O-])cc3)n2)n[nH]1` had an IC50 of 19 nM.

`OCCNCc1ccc(OCc2ccc(F)cc2)c(OCc2ccc(F)cc2)c1` had an IC50 in [5] of 4600 nM.

In data set [6], `COc1ccc(S(=O)(=O)Nc2cccnc2Nc2ccc(O)cc2)cc1` [ABT-751] displayed an IC50 of 1500 nM.

Compound `CO[C@H]1C[C@@H]2CC[C@@H](C)[C@@](O)(O2)C(=O)C(=O)N2CCCC[C@H]2C(=O)O[C@H]([C@H](C)C[C@@H]2CC[C@@H](OCCO)[C@H](OC)C2)CC(=O)[C@H](C)/C=C(\C)[C@@H](O)[C@@H](OC)C(=O)[C@H](C)C[C@H](C)/C=C/C=C/C=C/1C` [EVEROLIMUS] showed an IC50 in data set [7] of 5 to 6 nM.

On to `C=CC(C)(C)c1cc(/C=C/C(=O)c2ccc(O)cc2)c(OC)cc1O` [LICOAGROCHACONE A], for which the IC50 in data set [8] is 970 nM.

In data set [9], `CCCC(C(=O)OCCN(CC)CC)(c1ccccc1)c1ccccc1` [PROADIFEN HYDROCHLORIDE] yielded an IC50 of 19000 nM.

In data set [10], `Oc1ccc(/C=C/c2cc(O)cc(O)c2)cc1` [RESVERATROL] yielded an IC50 of 3300 nM.

In general, IC50 refers to the concentration at which inhibition is half-maximal.
